Source: patent publication US8063225B2, “Tricyclic compound derivatives useful in the treatment of neoplastic diseases, inflammatory disorders and immunomodulatory disorders” (Chembridge Corporation, priority 2006, dated 2011)

Assays:
InsR = biological target: T1, InsR (Homo sapiens, UniProt P06213); assay: Tyrosine kinase assay (Kinase-Glo or AlphaScreen), InsR; conditions: biochemical tyrosine kinase assay
T1 construct: 6×His- or GST-tagged kinase domain fragments of the corresponding RTKs expressed in baculovirus system; host or cells: baculovirus system
Method: (§1) To determine inhibition of several tyrosine kinases, such as IGF1R, InsR, Alk, TrkA and Jak2, kinase assays are conducted using either Kinase-Glo (Promega) or AlphaScreen (PerkinElmer) kinase assay platforms. The Kinase-Glo Luminescent Kinase Assay is a homogeneous method for measuring kinase activity by determining the amount of ATP remaining after a kinase reaction. The luminescent signal is proportional to the amount of ATP and inversely proportional to the amount of kinase activity. Tyrosine kinase PT66 AlphaScreen Assay is a high-sensitivity homogeneous, anti-phosphotyrosine antibody-mediated luminescent proximity method measuring, incorporation of phosphate in synthetic poly(Glu-Tyr) substrate. The kinase preparations used consist of purified recombinant, 6×His- or GST-tagged kinase domain fragments of the corresponding RTKs expressed in baculovirus system.
(§2) The IGF1R tyrosine kinase is assayed in Kinase-Glo ATP depletion assay using the synthetic polymer poly(Glu-Tyr, 4:1) (Sigma Chemicals) as a phosphoacceptor substrate. Each reaction mixture consists of a total volume of 10 μl and contains 40 ng of the enzyme, 5 μg of poly(Glu-Tyr), 10 μM of ATP and variable concentrations of test compounds. The mixtures also contain 50 mM Tris-HCl, pH 7.5; 5 mM MgCl2; 5 mM MnCl2; 2 mM DTT and 0.01% Tween 20. The reaction mixtures are incubated at 37° C. for 60 minutes and residual concentration of ATP in the mixture is determined by adding luciferase-containing Kinase-Glo (Promega) development reagent and counting luminescence levels using Fusion Universal Microplate Analyzer (PerkinElmer). Tested compounds are dissolved in dimethyl sulfoxide to a stock concentration of 10 mM and are typically evaluated in the assay at eight concentrations in 1 nM to 20 μM range, each in quadruplicate. […] IC50 values are derived by non-linear regression analysis using Prism 3.0 software (Graphpad Software). Other tyrosine kinases are assayed according to the same protocol after titrating amount of the enzyme to provide optimal signal-to-noise ratio and no more than 30% of total ATP consumption in the reaction conditions used.
(§3) The IGF1R tyrosine kinase is assayed in Phosphotyrosine (PT66 or PT 100) AlphaScreen chemiluminescent assay (PerkinElmer) according to the manufacturerer's recommendations. Each kinase reaction mixture consists of a total volume of 15 μl and contains 0.1-1 ng of the enzyme, 7 ng of biotinylated poly(Glu-Tyr) (Cis-Bio), 10 μM of ATP and variable concentrations of test compounds. The mixtures also contain 50 mM Tris-HCl, pH 7.5; 5 mM MgCl2; 5 mM MnCl2; 2 mM DTT and 0.01% Tween 20. The reaction mixtures are incubated at room temperature for 30 minutes. Ten (10) μl of the mixture of […] and donor beads (as supplied by the manufacturer) is then added to the reaction and the incubation is continued for an additional 60 minutes.

K562 = assay: Cell proliferation inhibition, Cell Titer-Glo, K562; type: cell-based; conditions: Homo sapiens; cell proliferation assay, K562 cells
Source text: (§4) IGF1R and other tyrosine kinase inhibitors can inhibit the proliferation of certain cancer cell lines indicating their possible therapeutic utility for treating the corresponding cancer types. Cancer cell lines of interest and control normal lines, including CHO, HEK293, BA/F3, COLO205, PC3, DU145, MCF7, Panc1, ACHN, Hep G2, H460, K562, TT, U87-MG, CAOV-3, SK-MEL5, Karpas 299 and human multiple myeloma cell lines H929, MM1s, MM1r, UTMC2, CPM2, KMS11, My5, KMS12PE, My7, JJN3, KMS18, U266, SKMM2, RPMI-8226 are plated in white, clear-bottomed 384-well cell culture plates at 2500-5000 cells per well and supplied with dilutions of tested compounds After a desired period of time (typically 3 days), the number of viable cells is quantitated by using Cell Titer-Glo Luminescent Cell Viability Assay (Promega), a cell proliferation assay system based on detection of total amount of ATP present as a measure of cell metabolic activity. The plated cells are mixed with the Cell Titer-Glo developing reagent and counted in a luminescence multiwell plate reader according to the standard manufacturer's protocol to generate IC50 curves for cell proliferation inhibition. Results are typically reported as percent of growth (% viability =(OD72h(compound)−ODday0))/(OD72h(no compound)−ODday0). Alternatively, viable cells are quantitated by using the conventional colorimetric MTT assay. The MTT assay is based on the cleavage of the yellow tetrazolium salt MTT to purple formazan crystal by metabolic active cells. The formazan is then solubilized, and the concentration determined by optical density at 570 nm. The cells plated and incubated with a compound as described above are supplemented with the solution of MTT and incubated for 2-3 hours. The growth medium is removed and dimethyl sulfoxide is added into each well to dissolve the formazan. The absorbance is measured on an ELISA plate reader with a test wavelength of 570 nm and a background subtraction wavelength of 630 nm to obtain sample signal (OD570-OD630). […] The results are reported in terms of IC50 value for a particular compound and a cell line in the standard 3-day proliferation assay using Cell Titer-Glo. […] The results are reported in terms of IC50 value for a particular compound and a cell line in the standard 3-day proliferation assay using MTT assay.

IGF1R tyrosine kinase = biological target: T2, IGF1R tyrosine kinase (Homo sapiens, UniProt P08069); assay: IGF1R tyrosine kinase assay (Kinase-Glo ATP depletion or PT66/PT100 AlphaScreen); conditions: biochemical tyrosine kinase assay
T2 construct: 6×His- or GST-tagged kinase domain fragments of the corresponding RTKs expressed in baculovirus system; host or cells: baculovirus system
Method: as §1, §2, §3

Jak2 = biological target: T3, Jak2 (Homo sapiens, UniProt O60674); assay: Tyrosine kinase assay (Kinase-Glo or AlphaScreen), Jak2; conditions: biochemical tyrosine kinase assay
T3 construct: 6×His- or GST-tagged kinase domain fragments of the corresponding RTKs expressed in baculovirus system; host or cells: baculovirus system
Method: as §1, §2, §3

Alk = biological target: T4, Alk (Homo sapiens, UniProt Q9UM73); assay: Tyrosine kinase assay (Kinase-Glo or AlphaScreen), Alk; conditions: biochemical tyrosine kinase assay
T4 construct: 6×His- or GST-tagged kinase domain fragments of the corresponding RTKs expressed in baculovirus system; host or cells: baculovirus system
Method: as §1, §2, §3

Ba/F3 = assay: Cell proliferation inhibition, Cell Titer-Glo, Ba/F3; type: cell-based; conditions: Mus musculus, BaF3; cell proliferation assay, Ba/F3 cells
Source text: as §4

Karpas-299 = assay: Cell proliferation inhibition, Cell Titer-Glo, Karpas-299; type: cell-based; conditions: Homo sapiens; cell proliferation assay, Karpas-299 cells
Source text: as §4

T1 sequence (P06213 1023-1298 limits assumed, species assumed): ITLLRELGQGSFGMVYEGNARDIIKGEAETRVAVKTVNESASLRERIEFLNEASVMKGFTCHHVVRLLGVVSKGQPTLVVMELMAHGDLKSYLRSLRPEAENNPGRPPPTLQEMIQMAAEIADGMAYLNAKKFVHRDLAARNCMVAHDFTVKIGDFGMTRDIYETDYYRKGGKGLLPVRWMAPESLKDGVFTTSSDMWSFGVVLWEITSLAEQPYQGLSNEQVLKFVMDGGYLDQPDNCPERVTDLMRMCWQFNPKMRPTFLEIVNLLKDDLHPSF
T4 sequence (Q9UM73 1116-1392 limits assumed, species assumed): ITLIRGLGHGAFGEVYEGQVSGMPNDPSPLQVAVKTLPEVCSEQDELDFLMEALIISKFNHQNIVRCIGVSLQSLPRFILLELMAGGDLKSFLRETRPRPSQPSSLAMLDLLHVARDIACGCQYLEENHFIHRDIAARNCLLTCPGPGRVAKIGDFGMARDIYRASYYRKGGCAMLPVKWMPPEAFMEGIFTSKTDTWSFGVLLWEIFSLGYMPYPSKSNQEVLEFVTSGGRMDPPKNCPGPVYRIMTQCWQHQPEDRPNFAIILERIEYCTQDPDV
T3 sequence (O60674 849-1124 limits assumed, species assumed): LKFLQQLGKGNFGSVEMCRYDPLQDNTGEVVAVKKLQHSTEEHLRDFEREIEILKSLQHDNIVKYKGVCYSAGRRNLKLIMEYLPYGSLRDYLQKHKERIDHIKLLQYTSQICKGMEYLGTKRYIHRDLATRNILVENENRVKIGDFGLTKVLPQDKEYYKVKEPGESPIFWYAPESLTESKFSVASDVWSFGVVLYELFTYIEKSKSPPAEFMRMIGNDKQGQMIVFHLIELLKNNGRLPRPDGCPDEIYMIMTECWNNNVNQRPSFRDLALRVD
T2 sequence (P08069 999-1274 limits assumed): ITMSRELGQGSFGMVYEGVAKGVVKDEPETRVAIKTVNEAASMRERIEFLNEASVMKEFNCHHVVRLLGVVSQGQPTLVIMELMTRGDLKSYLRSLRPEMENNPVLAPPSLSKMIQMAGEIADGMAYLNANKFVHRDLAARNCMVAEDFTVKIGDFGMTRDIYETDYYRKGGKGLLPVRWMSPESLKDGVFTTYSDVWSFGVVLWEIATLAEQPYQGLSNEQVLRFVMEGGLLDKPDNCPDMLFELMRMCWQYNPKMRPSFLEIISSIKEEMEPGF

CN1CCC(N2C(=O)c3cc4nc(-c5c(NC[C@@H](O)Cn6cnc7ccccc76)ccnc5O)[nH]c4cc3C2=O)CC1 [compound 49]
IC50 (InsR): 0.5 to 5 µM
IC50 (K562): > 15 µM
IC50 (IGF1R tyrosine kinase): 500 to 5000 nM
IC50 (Jak2): 0.5 to 5 µM
IC50 (Alk): 0.5 to 5 µM
IC50 (Ba/F3): > 15 µM
IC50 (Karpas-299): > 15 µM

Cc1ccc(OC[C@H](O)CNc2ccnc(O)c2-c2nc3cc4c(cc3[nH]2)C(=O)N(C2CCN(C)CC2)C4=O)c(C)n1 [compound 68]
IC50 (InsR): 0.5 to 5 µM
IC50 (K562): > 15 µM
IC50 (IGF1R tyrosine kinase): < 500 nM
IC50 (Jak2): 0.5 to 5 µM
IC50 (Alk): 5 to 15 µM
IC50 (Ba/F3): > 15 µM
IC50 (Karpas-299): > 15 µM

CN1CCC(N2C(=O)c3cc4nc(-c5c(NNC(=O)C(O)c6ccccc6)ccnc5O)[nH]c4cc3C2=O)CC1 (stereo not drawn) [compound 67]
IC50 (InsR): 5 to 15 µM
IC50 (K562): > 15 µM
IC50 (IGF1R tyrosine kinase): > 15000 nM
IC50 (Jak2): 0.5 to 5 µM
IC50 (Alk): 5 to 15 µM
IC50 (Ba/F3): > 15 µM
IC50 (Karpas-299): > 15 µM

CN1CCC(N2C(=O)c3cc4nc(-c5c(NC[C@@H](O)COc6cccc(C#N)c6)ccnc5O)[nH]c4cc3C2=O)CC1 [compound 52]
IC50 (InsR): 0.5 to 5 µM
IC50 (K562): > 15 µM
IC50 (IGF1R tyrosine kinase): < 500 nM
IC50 (Jak2): 0.5 to 5 µM
IC50 (Alk): 0.5 to 5 µM
IC50 (Ba/F3): > 15 µM
IC50 (Karpas-299): > 15 µM

CN1CCC(N2C(=O)c3cc4nc(-c5c(NN)ccnc5O)[nH]c4cc3C2=O)CC1 [compound 65]
IC50 (InsR): 5 to 15 µM
IC50 (K562): > 15 µM
IC50 (IGF1R tyrosine kinase): 5000 to 15000 nM
IC50 (Jak2): 5 to 15 µM
IC50 (Alk): > 15 µM
IC50 (Ba/F3): > 15 µM
IC50 (Karpas-299): > 15 µM

Cc1ccc(SC[C@H](O)CNc2cc[nH]c(=O)c2-c2nc3cc4c(cc3[nH]2)C(=O)N(C2CCN(C)CC2)C4=O)c(C)c1 [compound 79]
IC50 (InsR): 0.5 to 5 µM
IC50 (K562): 0.5 to 5 µM
IC50 (IGF1R tyrosine kinase): 500 to 5000 nM
IC50 (Jak2): 0.5 to 5 µM
IC50 (Alk): 0.5 to 5 µM
IC50 (Ba/F3): 5 to 15 µM
IC50 (Karpas-299): 5 to 15 µM

CN(C)CCc1ncccc1OC[C@H](O)CNc1ccnc(O)c1-c1nc2cc3c(cc2[nH]1)C(=O)N(C1CCN(C)CC1)C3=O [compound 72]
IC50 (InsR): 0.5 to 5 µM
IC50 (K562): > 15 µM
IC50 (IGF1R tyrosine kinase): 500 to 5000 nM
IC50 (Jak2): 0.5 to 5 µM
IC50 (Alk): 0.5 to 5 µM
IC50 (Ba/F3): > 15 µM
IC50 (Karpas-299): > 15 µM

CN1CCC(N2C(=O)c3cc4nc(-c5c(NC[C@@H](O)COc6cccc7c6OC(F)(F)C(F)O7)cc[nH]c5=O)[nH]c4cc3C2=O)CC1 (stereo partly drawn) [compound 83]
IC50 (InsR): < 0.5 µM
IC50 (K562): > 15 µM
IC50 (IGF1R tyrosine kinase): < 500 nM
IC50 (Jak2): 0.5 to 5 µM
IC50 (Alk): 0.5 to 5 µM
IC50 (Ba/F3): > 15 µM
IC50 (Karpas-299): > 15 µM

CN1CCC(N2C(=O)c3cc4nc(-c5c(NC[C@@H](O)COc6cccnc6)ccnc5O)[nH]c4cc3C2=O)CC1 [compound 70]
IC50 (InsR): 5 to 15 µM
IC50 (K562): > 15 µM
IC50 (IGF1R tyrosine kinase): 5000 to 15000 nM
IC50 (Jak2): 0.5 to 5 µM
IC50 (Alk): 5 to 15 µM
IC50 (Ba/F3): > 15 µM
IC50 (Karpas-299): > 15 µM

O=C1c2cc3nc(-c4c(NC[C@@H](O)c5cccc(Cl)c5)cc[nH]c4=O)[nH]c3cc2C(=O)N1CCO [compound 43]
IC50 (InsR): 0.5 to 5 µM
IC50 (K562): 5 to 15 µM
IC50 (IGF1R tyrosine kinase): 500 to 5000 nM
IC50 (Jak2): 0.5 to 5 µM
IC50 (Alk): > 15 µM
IC50 (Ba/F3): > 15 µM
IC50 (Karpas-299): 5 to 15 µM

CN1CCC(N2C(=O)c3cc4nc(-c5c(NC[C@@H](O)COc6ccc(F)c(Cl)c6)ccnc5O)[nH]c4cc3C2=O)CC1 [compound 74]
IC50 (InsR): 0.5 to 5 µM
IC50 (K562): 0.5 to 5 µM
IC50 (IGF1R tyrosine kinase): 500 to 5000 nM
IC50 (Jak2): 0.5 to 5 µM
IC50 (Alk): 5 to 15 µM
IC50 (Ba/F3): 0.5 to 5 µM
IC50 (Karpas-299): 0.5 to 5 µM

COc1cc(C)ccc1OC[C@H](O)CNc1ccnc(O)c1-c1nc2cc3c(cc2[nH]1)C(=O)N(C1CCN(C)CC1)C3=O [compound 54]
IC50 (InsR): 0.5 to 5 µM
IC50 (K562): 5 to 15 µM
IC50 (IGF1R tyrosine kinase): < 500 nM
IC50 (Jak2): > 15 µM
IC50 (Alk): 5 to 15 µM
IC50 (Ba/F3): 5 to 15 µM
IC50 (Karpas-299): 5 to 15 µM

Cc1ccc(OCC(O)CNc2cc[nH]c(=O)c2-c2nc3cc4c(cc3[nH]2)C(=O)N(C2CCN(C)CC2)C4=O)cc1C (stereo not drawn) [compound 104]
IC50 (InsR): < 0.5 µM
IC50 (K562): > 15 µM
IC50 (IGF1R tyrosine kinase): 500 to 5000 nM
IC50 (Jak2): 5 to 15 µM
IC50 (Alk): 5 to 15 µM
IC50 (Ba/F3): > 15 µM
IC50 (Karpas-299): > 15 µM

Cc1ccc(OC[C@H](O)CNc2ccnc(O)c2-c2nc3cc4c(cc3[nH]2)C(=O)N([C@H]2CCCN(C)C2)C4=O)c(C)c1 [compound 103]
IC50 (InsR): 5 to 15 µM
IC50 (K562): 0.5 to 5 µM
IC50 (IGF1R tyrosine kinase): < 500 nM
IC50 (Jak2): 5 to 15 µM
IC50 (Alk): > 15 µM
IC50 (Ba/F3): 0.5 to 5 µM
IC50 (Karpas-299): 0.5 to 5 µM

CN1CCC(N2C(=O)c3cc4nc(-c5c(NC[C@@H](O)COc6cccc(Cl)c6)ccnc5O)[nH]c4cc3C2=O)CC1 [compound 75]
IC50 (InsR): 0.5 to 5 µM
IC50 (K562): 0.5 to 5 µM
IC50 (IGF1R tyrosine kinase): 500 to 5000 nM
IC50 (Jak2): 0.5 to 5 µM
IC50 (Alk): 0.5 to 5 µM
IC50 (Ba/F3): 0.5 to 5 µM
IC50 (Karpas-299): 0.5 to 5 µM
